Here are results for 8 compounds from DBAASP.

Values after ≈ are worked out from the molar mass of the structure shown.

Among the test systems are Candida albicans C627; Salmonella typhimurium; Escherichia coli HB101; Bacillus subtilis; Staphylococcus aureus; Pseudomonas aeruginosa; Klebsiella pneumoniae; Streptococcus mutans; Streptococcus agalactiae; Streptococcus pyogenes; Escherichia coli D31; Listeria grayi DSM 20601.
Assay in all cases: ≥ marks a high value that may be exact or a test limit, other limits are often not marked, values filed in µg/mL are converted to µM
The test system of experiment [1] is Mycobacterium tuberculosis H37Rv.
The subject of experiment [2] is Mycobacterium tuberculosis CSU87.
Experiment [3] has as its system Pseudomonas aeruginosa LES400.
The test system of experiment [4] is Enterococcus faecium mic80.
The test system of experiment [5] is Pseudomonas aeruginosa 213.
Experiment [6] relates to Escherichia coli ESBL 63103.
Experiment [7] deals with Pseudomonas aeruginosa H103.
Experiment [8] deals with Staphylococcus aureus ATCC 25923.
Experiment [9] has as its system Staphylococcus aureus C623.
Experiment [10] concerns Staphylococcus aureus 1550.
In experiment [11] the test system is Micrococcus luteus ATCC 9341.
Experiment [12] relates to Staphylococcus aureus ATCC 6538.
In experiment [13] the test system is Candida albicans ATCC 36232.
Experiment [14] has as its system Escherichia coli ATCC 2592.
For experiment [15], the system named is Pseudomonas aeruginosa ATCC 9027.
Experiment [16] relates to Mycobacterium tuberculosis mc2-6020.
Experiment [17] concerns Streptococcus pneumoniae ATCC 49619.
For experiment [18], the system named is Bacillus subtilis BGSC 1A1.
For experiment [19], the system named is Escherichia coli ATCC 25922.
Experiment [20] relates to Mycobacterium tuberculosis mc2-6230.
Experiment [21] relates to Pseudomonas aeruginosa ATCC 27853.
Experiment [22] deals with Listeria fleischmannii DSM 24998.
Experiment [23] deals with Micrococcus luteus DSM 20030.
The test system of experiment [24] is Listeria monocytogenes DSM 20600.
In experiment [25] the test system is Staphylococcus epidermidis ATCC 12228.
In experiment [26] the test system is Candida albicans ATCC 64550.
For experiment [27], the system named is Staphylococcus aureus USA 100.
The subject of experiment [28] is Staphylococcus aureus ATCC 29737.
For experiment [29], the system named is Candida albicans ATCC 90028.
Experiment [30] deals with Staphylococcus aureus USA 300.
Experiment [31] has as its system Streptococcus sobrinus ATCC 6715.
For experiment [32], the system named is Streptococcus sanguinis ATCC 10556.
Experiment [33] deals with Streptococcus mutans UA159.

In general, MIC refers to the lowest concentration that inhibits growth of the organism. As to `CSCC[C@H](NC(=O)[C@H](CCCCN)NC(=O)[C@H](CCCCN)NC(=O)[C@H](CC(C)C)NC(=O)[C@H](CC(C)C)NC(=O)[C@H](CCCCN)NC(=O)[C@H](CCCCN)NC(=O)[C@H](CC(C)C)NC(=O)[C@@H](N)CC(C)C)C(N)=O` [LLKKLLKKM], the MIC in experiment [1] was at least 449 µM; in experiment [2] it was at least 112 µM.
Regarding `CC[C@H](C)[C@H](NC(=O)[C@H](CCCCN)NC(=O)[C@H](Cc1c[nH]c2ccccc12)NC(=O)[C@H](Cc1c[nH]c2ccccc12)NC(=O)[C@@H](N)CCCCN)C(=O)N[C@@H](Cc1c[nH]c2ccccc12)C(=O)N[C@@H](CCCN=C(N)N)C(=O)N[C@@H](Cc1c[nH]c2ccccc12)C(=O)N[C@@H](CCCN=C(N)N)C(=O)O` [KWWKIWRWR], the MIC in experiment [3] was at least 44.3 µM; in experiment [4], 22.1 µM (≈ 32 µg/mL); in experiment [5] it was at least 88.6 µM; in [6], at least 44.3 µM; in experiment [7] it was 22.1 µM (≈ 32 µg/mL); in experiment [8] it was 11.1 µM (≈ 16 µg/mL). The MIC in experiment [9] came out at 11.1 µM (≈ 16 µg/mL); against Candida albicans C627, 5.54 µM (≈ 8 µg/mL).
With `CC[C@H](C)[C@H](NC(=O)[C@@H](NC(=O)[C@@H]1CCCN1C(=O)[C@@H](NC(=O)[C@@H]1CCCN1C(=O)[C@H](CCCCN)NC(=O)[C@H](CCCCN)NC(=O)[C@H](CO)NC(=O)CN)C(C)C)[C@@H](C)CC)C(=O)N[C@@H](Cc1ccc(O)cc1)C(=O)N[C@H]1CSSC[C@@H](C(=O)N[C@@H](CCC(N)=O)C(=O)N[C@@H](CCCN=C(N)N)C(=O)N[C@@H](CCSC)C(=O)O)NC(=O)[C@H](CCCCN)NC(=O)CNC(=O)[C@H](CCCN=C(N)N)NC(=O)[C@H](CCCN=C(N)N)NC(=O)[C@H](CC(N)=O)NC1=O` [GSKKPVPIIYCNRRGKCQRM], the MIC in the experiment on Salmonella typhimurium was 1.3 µM (≈ 3.03 µg/mL); in the experiment on Escherichia coli HB101, 0.64 µM (≈ 1.49 µg/mL); in the experiment on Bacillus subtilis, 5.2 µM (≈ 12.1 µg/mL); against Staphylococcus aureus it was 10.4 µM (≈ 24.3 µg/mL); in the experiment with Pseudomonas aeruginosa, 2.6 µM (≈ 6.07 µg/mL).
On to `CC(C)[C@H](NC(=O)[C@H](CCCCN)NC(=O)[C@H](Cc1ccccc1)NC(=O)[C@@H](NC(=O)[C@@H](NC(=O)[C@H](CCCCN)NC(=O)[C@@H](N)Cc1cnc[nH]1)C(C)C)C(C)C)C(=O)N[C@@H](CCCCN)C(=O)N[C@@H](Cc1ccccc1)C(=O)N[C@@H](Cc1cnc[nH]1)C(=O)O` [HKVVFKVKFH], for which the MIC in [10] was at least 49.7 µM; in experiment [11] it was 7.88 µM (≈ 10 µg/mL); in experiment [12] it was 12.6 µM (≈ 16 µg/mL); in experiment [13] it was at least 78.8 µM; in experiment [14], 15 µM (≈ 19 µg/mL); in [15] it was 8.67 µM (≈ 11 µg/mL).
Regarding `CC[C@H](C)[C@H](N)C(=O)N[C@@H](CC(C)C)C(=O)N[C@@H](CO)C(=O)N[C@@H](CC(C)C)C(=O)N[C@@H](CCCN=C(N)N)C(=O)N[C@@H](Cc1c[nH]c2ccccc12)C(=O)N[C@@H](CCCN=C(N)N)C(=O)N[C@@H](Cc1c[nH]c2ccccc12)C(=O)N[C@@H](Cc1c[nH]c2ccccc12)C(=O)N[C@@H](CCCCN)C(=O)N[C@@H](Cc1c[nH]c2ccccc12)C(=O)N[C@@H](CCCCN)C(=O)N[C@@H](CCCCN)C(=O)O` [ILSLRWRWWKWKK], the MIC was 4 µM (≈ 7.55 µg/mL) in experiment [16]; 32 µM (≈ 60.4 µg/mL) against Klebsiella pneumoniae; at least 32 µM in [17]; 4 µM (≈ 7.55 µg/mL) with Streptococcus mutans; 68 µM (≈ 128 µg/mL) in experiment [8]; 2 µM (≈ 3.77 µg/mL) in experiment [18]. The MIC in experiment [19] is 8 µM (≈ 15.1 µg/mL); in the experiment with Streptococcus agalactiae, 4 µM (≈ 7.55 µg/mL); against Streptococcus pyogenes, 4 µM (≈ 7.55 µg/mL); in [20] it was at least 32 µM; in experiment [21], 32 µM (≈ 60.4 µg/mL).
As for `CC[C@H](C)[C@H](NC(=O)[C@H](C)NC(=O)[C@H](CCCCN)NC(=O)[C@H](CCCCN)NC(=O)[C@@H](NC(=O)CNC(=O)[C@H](CCC(=O)O)NC(=O)[C@H](CC(C)C)NC(=O)[C@H](CC(C)C)NC(=O)[C@H](CCCCN)NC(=O)CNC(=O)[C@H](Cc1c[nH]c2ccccc12)NC(=O)[C@H](Cc1ccccc1)NC(=O)CN)C(C)C)C(N)=O` [GFWGKLLEGVKKAI], the MIC turned out to be 15 µM (≈ 23.2 µg/mL) in experiment [22]; 8 µM (≈ 12.4 µg/mL) in [23]; 15 µM (≈ 23.2 µg/mL) against Escherichia coli D31; 15 µM (≈ 23.2 µg/mL) in experiment [24]; 8 µM (≈ 12.4 µg/mL) against Listeria grayi DSM 20601.
As for `CC[C@H](C)[C@H](N)C(=O)N[C@@H](CCCN=C(N)N)C(=O)N[C@H](C(=O)N[C@@H](CCCN=C(N)N)C(=O)N[C@H](C(=O)N[C@@H](CCCN=C(N)N)C(=O)N[C@H](C(=O)N[C@@H](CCCN=C(N)N)C(N)=O)[C@@H](C)CC)[C@@H](C)CC)[C@@H](C)CC` [IRIRIRIR], the MIC in experiment [25] is 3.56 µM (≈ 3.9 µg/mL); in experiment [26] it was 12.5 µM (≈ 13.7 µg/mL); in experiment [27], 6.25 µM (≈ 6.84 µg/mL); in experiment [15], 6.25 µM (≈ 6.84 µg/mL); in [28], 28.6 µM (≈ 31.3 µg/mL); in experiment [29] it was 6.25 µM (≈ 6.84 µg/mL). Moreover, the MIC in [19] came to 7.12 µM (≈ 7.79 µg/mL); in experiment [30] it was 6.25 µM (≈ 6.84 µg/mL).
As to `NCCCC[C@H](NC(=O)[C@H](Cc1c[nH]c2ccccc12)NC(=O)[C@H](CCCCN)NC(=O)[C@H](CCCCN)NC(=O)[C@H](Cc1ccccc1)NC(=O)[C@H](Cc1ccccc1)NC(=O)[C@H](CCCCN)NC(=O)[C@H](CCCCN)NC(=O)[C@H](Cc1ccccc1)NC(=O)[C@H](Cc1ccccc1)NC(=O)[C@H](CCCCN)NC(=O)[C@@H](N)Cc1ccccc1)C(=O)O` [FKFFKKFFKKWK], the MIC in [31] was found to be 18.7 µM (≈ 32 µg/mL); in experiment [32], 18.7 µM (≈ 32 µg/mL); in experiment [33], 9.36 µM (≈ 16 µg/mL).
